The source of these data is patent publication EP0263968A2, “Use of opiate antagonists in the manufacture of agents for the diagnosis and therapy of hypothalamic function disorders” (Ferring Arzneimittel GmbH, priority 1986, dated 1988).

The test system of one data set is Gonadotropine. Description: Diagnostic test: intravenous naloxone in secondary and primary amenorrhoea. Format: in vivo. From the text: Somit zeigt dieser diagnostische Test, daß bei den Fällen von sekundärer Amenorrhoe die Suppression der Gonadotropine im Serum auf einer erhöhten endogenen Opiataktivität beruht, die therapeutisch durch den längerfristigen Einsatz von Antagonisten gedämpft werden kann.

Data set [1] has as its system Patientinnen mit hypothalamischer Amenorrhoe. As to the kind of experiment: Continuous naloxone infusion in patients with hypothalamic amenorrhoea. It is filed as in vivo. The following applies: duration 6 to 52 hours. From the text:
Im Rahmen der vorliegenden Erfindung wurden Untersuchungen an Patientinnen mit hypothalamischer Amenorrhoe durchgeführt. Diese Untersuchungen haben überraschenderweise gezeigt, daß durch die Gabe von Opiat-Antagonisten eine Zunahme von Frequenz und Amplitude der LH und FSH Sekretion erreicht wird. Es kann daher davon ausgegangen werden, daß die endogene GnRH Sekretion durch Opiat-Antagonisten vermehrt wird.
Beispielsweise wurde Naloxon bei Patientinnen mit hypothalamischer Amenorrhoe infundiert. Die Infusionsdauer betrug 6 bis 52 Stunden.

The subject of data set [2] is Patientinnen mit normalem Zyklus. As to the kind of experiment: Naltrexone administration to patients with normal cycle. It is filed as in vivo. From the text: Es ergibt sich daher die Möglichkeit, Opiat-Antagonisten zur Diagnose und Therapie hypothalamischer Funktionsstörungen einzusetzen, insbesondere bei solchen, bei denen zu vermuten ist, daß eine Hemmung der entsprechenden Partialfunktion durch vermehrt gebildete Endorphine verursacht ist.

Data set [3] concerns Patientinnen mit hypothalamischer Amenorrhoe. Description: Oral naltrexone treatment of patients with hypothalamic amenorrhoea (serial blood sampling, ultrasound). Format: in vivo. As to the method: Die basale Gonadotropin Sekretion von Patientinnen, die an hypothalamischer Amenorrhoe litten, wurde durch Bestimmung von LH und FSH, Prolactin und Ovarien-Steroiden in Blutproben bewertet, die alle zehn Minuten während 24 Stunden entnommen wurden. Naltrexon wurde dann in einer Dosis von 50 mg pro Tag während 24 oder 28 Tagen verabreicht. 5 Tage und 14 Tage nach dem Beginn der Naltrexonverabreichung wurden wiederholte Blutproben entnommen. An den übrigen Tagen wurden täglich Blutproben entnommen und es wurde eine Ultraschalluntersuchung nach der Naltrexonverabreichung sowie einige Tage danach durchgeführt. Es wurden folgende Ergebnisse ermittelt:
Auf die Verabreichung von Naltrexon folgte eine Zunahme der Frequenz und der Amplitude der pulsatielen Gonadotropin Sekretion sowie eine Zunahme der mittleren LH und FSH Serumkonzentration sowie der Entwicklung der Gonaden-Steroid Sekretion und der Follikel, was durch Ultraschall festgestellt wurde.

The conditions of data set [4]: oral administration possible; cited from earlier work.
Where [5] appears, read: 50 mg per day for 24 or 28 days.
[6] abbreviates: patients with hypothalamic amenorrhoea.

Consider `C=CCN1CC[C@]23c4c5ccc(O)c4OC2C(=O)CC[C@@]3(O)[C@H]1C5` (some centres unmarked) [Naloxon, 17-Allyl-4,5-epoxy-3,14-dihydroxymorphinan-6-on], for which the “Anstieg der Gonadotropine” value with Gonadotropine (some cases of primary amenorrhoea) is “nicht oder nur in wesentlich geringerem Ausmaß”; in the data set with Gonadotropine (some cases of secondary amenorrhoea) it was “deutlichen Anstieg”. The “Frequenz und Amplitude der LH und FSH Sekretion” value in data set [1] was “deutliche Zunahme”.

As to `O=C1CC[C@@]2(O)[C@H]3Cc4ccc(O)c5c4[C@@]2(CCN3CC2CC2)C1O5` (some centres unmarked) [Naltrexon, 17-(Cyclopropylmethyl)-4,5-epoxy-3,14-dihydroxymorphinan-6-on], in data set [2], the “Ablauf des Zyklus” value is listed as “keinen Einfluß” and the “Sekretion der gonadotropen Hormone” value is listed as “keinen Einfluß”. Also, in data set [3] (setting [5]), the “Frequenz und Amplitude der pulsatielen Gonadotropin Sekretion” value was “Zunahme” and the “mittlere LH und FSH Serumkonzentration” value was “Zunahme”. Moreover, in data set [3] (50 mg per day for 24 or 28 days, 3 patients), the “Patientinnen, die ovulierten” value is on record as “Eine von 3”. Further, the “Menstruation nach Absetzen des Mittels” value in data set [3] (50 mg per day for 24 or 28 days, after withdrawal) is “Sämtliche Patientinnen menstruierten”. Moreover, the “Entwicklung der Gonaden-Steroid Sekretion und der Follikel” value in data set [3] (50 mg per day for 24 or 28 days, follicles by ultrasound) is on record as “Zunahme”. Moreover, the “menstrueller Zyklus” value in data set [3] (oral, patients with hypothalamic amenorrhoea) is “Normalisierung”. Besides, in data set [3] (setting [6]), the Gonadotropin-Sekretion result was “Normalisierung” and the “Ovulation, Bildung eines Corpus luteum” value is recorded as “zur Ovulation und zur Bildung eines Corpus luteum”. The “Verweildauer im Plasma” value in data set [4] is recorded as “lange Verweildauer im Plasma”.
